Assay [1] addresses T1, KRAS-G12C/SOS1 (Homo sapiens, UniProt Q07889).
T1 construct: purchased Cisbio 63ADKOOOCB16PEG
T1 sequence (Q07889 1-1333): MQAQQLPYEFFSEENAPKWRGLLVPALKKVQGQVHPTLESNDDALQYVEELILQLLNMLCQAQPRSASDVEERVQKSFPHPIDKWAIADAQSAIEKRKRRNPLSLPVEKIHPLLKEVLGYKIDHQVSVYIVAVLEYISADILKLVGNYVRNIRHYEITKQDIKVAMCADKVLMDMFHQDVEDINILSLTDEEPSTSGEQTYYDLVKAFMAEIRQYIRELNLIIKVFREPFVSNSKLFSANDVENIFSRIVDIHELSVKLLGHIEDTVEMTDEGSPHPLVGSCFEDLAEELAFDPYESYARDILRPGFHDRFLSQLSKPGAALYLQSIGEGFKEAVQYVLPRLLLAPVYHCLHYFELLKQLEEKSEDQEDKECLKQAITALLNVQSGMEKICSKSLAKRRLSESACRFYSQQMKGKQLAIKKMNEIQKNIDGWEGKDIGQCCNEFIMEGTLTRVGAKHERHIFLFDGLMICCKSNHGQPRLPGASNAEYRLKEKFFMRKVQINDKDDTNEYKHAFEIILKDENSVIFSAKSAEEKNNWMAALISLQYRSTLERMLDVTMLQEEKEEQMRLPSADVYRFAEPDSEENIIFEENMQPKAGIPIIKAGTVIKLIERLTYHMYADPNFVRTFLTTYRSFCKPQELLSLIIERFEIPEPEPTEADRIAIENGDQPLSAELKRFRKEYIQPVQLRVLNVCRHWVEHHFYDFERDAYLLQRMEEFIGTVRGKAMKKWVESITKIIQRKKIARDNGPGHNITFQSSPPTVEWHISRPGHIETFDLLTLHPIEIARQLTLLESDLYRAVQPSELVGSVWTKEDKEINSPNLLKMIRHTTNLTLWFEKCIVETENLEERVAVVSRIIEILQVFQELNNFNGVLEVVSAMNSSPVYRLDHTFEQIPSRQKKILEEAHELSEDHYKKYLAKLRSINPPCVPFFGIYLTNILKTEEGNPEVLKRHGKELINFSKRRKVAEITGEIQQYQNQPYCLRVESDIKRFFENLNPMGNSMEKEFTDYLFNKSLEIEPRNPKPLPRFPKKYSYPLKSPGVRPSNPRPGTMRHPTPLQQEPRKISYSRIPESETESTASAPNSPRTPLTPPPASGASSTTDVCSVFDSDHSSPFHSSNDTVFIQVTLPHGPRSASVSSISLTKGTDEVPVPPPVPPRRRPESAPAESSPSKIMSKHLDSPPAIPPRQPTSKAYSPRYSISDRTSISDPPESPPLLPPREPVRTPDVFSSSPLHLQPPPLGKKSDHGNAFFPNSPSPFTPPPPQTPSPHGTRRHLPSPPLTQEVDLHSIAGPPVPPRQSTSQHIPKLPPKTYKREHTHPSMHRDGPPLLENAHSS
Description: KRAS-G12C/SOS1 binding assay (HTRF). The conditions noted are these: inhibition of KRAS-G12C/SOS1 binding. The method, then: The following method was used to determine the extent of inhibition of KRAS-G12C/SOS1 binding by the preferred compounds of the present invention under in vitro conditions. In this method, the competitive inhibition of KRAS-G12C/SOS1 binding by the preferred compounds was assayed by the homogeneous time-resolved fluorescence (HTRF) technology using the KRAS-G12C/SOS1 binding assay kit (Cisbio, 63ADKOOOCB16PEG).
The experimental procedures were as follows (refer to the kit instructions for details): the compounds of the present invention were each firstly dissolved in DMSO at a concentration of 20 mM, and then diluted in an equal gradient with a buffer in the kit, so that the final concentrations of the test compounds in the reaction system were in a range of 10000 nM-0.04 nM, and the final concentration of DMSO was 0.5%. 2 μL of the compounds were each incubated with 4 μL of 1×Tag1-SOS1, 4 μL of 1×Tag2-KRAS-G12C (containing 10 μM guanosine triphosphate, GTP) at 25° C. for 15 min. Then 5 μL of 1× Anti-Tag1-Tb3+ and 5 μL of 1× Anti-Tag2-XL665 were added to the reaction system, and the mixture was incubated on ice for 3 h. After the incubation, the fluorescence intensity of each well was measured at the excitation wavelength of 337 nm, the fluorescence intensity of each well was read at the emission wavelengths of 620 nm and 665 nm on a microplate reader EnVision (PerkinElmer, 2105) in an HTRF mode, and the Ratio value was calculated by the formula Ratio=(665 nm/620 nm)×[…]. The inhibition rates of the compounds at each concentration were calculated by comparing the fluorescence intensity ratio with that of the control group, and then nonlinear curve fitting was performed by GraphPad Prism 8 in the logarithmic concentration-inhibition rate to obtain the IC50 values of the compounds, as shown in Table 1.
On the technique in general: In TR-FRET formats the signal depends on donor and acceptor labels being close together.

Assay [2] has as its target T2, SOS1 protein (Homo sapiens, UniProt Q07889).
T2 sequence (Q07889 1-1333): T1 sequence (Q07889 1-1333)
As to the kind of experiment: SOS1 degradation assay (Western blot), NCI-H358 cells. Also on record: The degradation of SOS1 by the compounds was investigated on KRAS G12C mutant human non-small cell lung cancer cells NCI-H358; host or cells: NCI-H358 (human cancer cell lines). The conditions noted are these: SOS1 degradation, NCI-H358 cells, 24 h, Western blot; for DC50: read-out: NCI-H358 (G12C) DC50; for Dmax: read-out: NCI-H358 (G12C) Dmax. The format is cell-based. Put shortly: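 SOS1 degradation was assessed by densitometry of Western blots, relative to untreated controls, after 24 h compound exposure (0.03–3000 nM final, 37 °C, 5% CO2) of cells seeded at 5×10^5/well. Log concentration–response fitting gave DC50 and Dmax.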

For orientation: IC50 means the point on the concentration scale where inhibition reaches its midpoint. A lower IC50 goes with greater potency. As a reminder, the DC50 is the concentration at which degradation of the target reaches its halfway point. As a reminder, the Dmax is the largest share of the target that was removed.

In assay [1], `COc1cc2nc(C)nc(N[C@H](C)c3cc(-c4c(Cl)cccc4CN(C)C)cs3)c2cc1[C@H]1CC[C@H](C(=O)N2CCC(COCCC3CCN(C(=O)c4ccc(Cl)c(N5CCC(=O)NC5=O)c4)CC3)CC2)CC1` [Example 70, 1-(2-chloro-5-(4-(2-((1-((1R,4R)-4-(4-(((R)-1-(4-(2-chloro-6-((dimethylamino)methyl)phenyl)thien-2-yl)ethyl)amino)-7-methoxy-2-methylquinazolin-6-yl)cyclohexane-1-carbonyl)piperidin-4-yl)methoxy)ethyl)piperidine-1-carbonyl)phenyl)dihydropyrimidine-2,4(1H,3H)-dione] registered an IC50 of no more than 0.015 µM. In addition, in assay [2], the DC50 was less than 0.05 µM and the Dmax fell in the range of 80 to 100%.
`COc1cc2nc(C)nc(N[C@H](C)c3cc(-c4c(Cl)cccc4CN(C)C)cs3)c2cc1[C@H]1CC[C@H](C(=O)N2CCN(CCOCC3CCN(C(=O)c4ccc(Cl)c(N5CCC(=O)NC5=O)c4)CC3)CC2)CC1` [Example 67, 1-(2-chloro-5-(4-((2-(4-((1R,4R)-4-(4-(((R)-1-(4-(2-chloro-6-((dimethylamino)methyl)phenyl)thien-2-yl)ethyl)amino)-7-methoxy-2-methylquinazolin-6-yl)cyclohexane-1-carbonyl)piperazin-1-yl)ethoxy)methyl)piperidine-1-carbonyl)phenyl)dihydropyrimidine-2,4(1H,3H)-dione] registered an IC50 in assay [1] of no more than 0.015 µM. Further, in assay [2], the DC50 is less than 0.05 µM and the Dmax lay within 80 to 100%.
On to `COc1cc2nc(C)nc(N[C@H](C)c3cc(-c4c(Cl)cccc4CN(C)C)cs3)c2cc1[C@H]1CC[C@H](C(=O)N2CCN(CCCOC3CCN(C(=O)c4ccc(Cl)c(N5CCC(=O)NC5=O)c4)CC3)CC2)CC1` [Example 68, 1-(2-chloro-5-(4-(3-(4-((1R,4R)-4-(4-(((R)-1-(4-(2-chloro-6-((dimethylamino)methyl)phenyl)thien-2-yl)ethyl)amino)-7-methoxy-2-methylquinazolin-6-yl)cyclohexane-1-carbonyl)piperazin-1-yl)propoxy)piperidine-1-carbonyl)phenyl)dihydropyrimidine-2,4(1H,3H)-dione], for which, in assay [1], the IC50 is no more than 0.015 µM. Further, in assay [2], the 50% degradation concentration (DC50) was less than 0.05 µM and the greatest degradation seen (Dmax) was 50 to 80%.
For `COc1cc2nc(C)nc(N[C@H](C)c3cc(N)cc(C(F)(F)F)c3)c2cc1C1=CCC(C(=O)N2CCN(CC3CCC4(CC3)CCN(C(=O)c3ccc(Cl)c(N5CCC(=O)NC5=O)c3)CC4)CC2)CC1` (stereo partly drawn) [Example 51, 1-(5-(9-((4-(4-(4-(((R)-1-(3-amino-5-(trifluoromethyl)phenyl)ethyl)amino)-7-methoxy-2-methylquinazolin-6-yl)cyclohex-3-ene-1-carbonyl)piperazin-1-yl)methyl)-3-azaspiro[5.5]undecane-3-carbonyl)-2-chlorophenyl)dihydropyrimidine-2,4(1H,3H)-dione], in assay [1], the IC50 was no more than 0.015 µM. In assay [2], the DC50 is less than 0.05 µM and the Dmax is 80 to 100%.
Turning to `COc1cc2nc(C)nc(N[C@H](C)c3cc(-c4c(Cl)cccc4CN(C)C)cs3)c2cc1[C@H]1CC[C@H](C(=O)N2CCN(CC3CCC4(CC3)CCN(C(=O)c3ccc(F)c(N5CCC(=O)NC5=O)c3)CC4)CC2)CC1` [Example 60, 1-(5-(9-((4-((1R,4R)-4-(4-(((R)-1-(4-(2-chloro-6-((dimethylamino)methyl)phenyl)thien-2-yl)ethyl)amino)-7-methoxy-2-methylquinazolin-6-yl)cyclohexane-1-carbonyl)piperazin-1-yl)methyl)-3-azaspiro[5.5]undecane-3-carbonyl)-2-fluorophenyl)dihydropyrimidine-2,4(1H,3H)-dione], in assay [1], the IC50 was no more than 0.015 µM. Further, in assay [2], the DC50 is less than 0.05 µM and the maximal degradation (Dmax) was 50 to 80%.
For `COCCOc1cc2nc(C)nc(N[C@H](C)c3cc(N)cc(C(F)(F)F)c3)c2cc1[C@H]1CC[C@H](C(=O)N2CCN(CC3CCC4(CC3)CCN(C(=O)c3ccc(Cl)c(N5CCC(=O)NC5=O)c3)CC4)CC2)CC1` [Example 43, 1-(5-(9-((4-((1R,4R)-4-(4-(((R)-1-(3-amino-5-(trifluoromethyl)phenyl)ethyl)amino)-7-(2-methoxyethoxy)-2-methylquinazolin-6-yl)cyclohexane-1-carbonyl)piperazin-1-yl)methyl)-3-azaspiro[5.5]undecane-3-carbonyl)-2-chlorophenyl)dihydropyrimidine-2,4(1H,3H)-dione] the same measures were no more than 0.015 µM, less than 0.05 µM and 50 to 80%.
In assay [1], `CNCc1ccccc1-c1csc([C@@H](C)Nc2nc(C)nc3cc(OC)c([C@H]4CC[C@H](C(=O)N5CCN(CCC6CCC7(CC6)CCN(C(=O)c6ccc(Cl)c(N8CCC(=O)NC8=O)c6)CC7)CC5)CC4)cc23)c1` [Example 50] registered an IC50 of no more than 0.015 µM. Further, in assay [2], the DC50 is less than 0.05 µM and the Dmax lay within 80 to 100%.
On to `COc1cc2nc(C)nc(N[C@H](C)c3cc(N)cc(C(F)(F)F)c3)c2cc1C1=CCC(C(=O)N2CCN(CCOCC3CCN(C(=O)c4ccc(Cl)c(N5CCC(=O)NC5=O)c4)CC3)CC2)CC1` (stereo partly drawn) [Example 53, 1-(5-(4-((2-(4-(4-(4-(((R)-1-(3-amino-5-(trifluoromethyl)phenyl)ethyl)amino)-7-methoxy-2-methylquinazolin-6-yl)cyclohex-3-ene-1-carbonyl)piperazin-1-yl)ethoxy)methyl)piperidine-1-carbonyl)-2-chlorophenyl)dihydropyrimidine-2,4(1H,3H)-dione], for which the IC50 in assay [1] was no more than 0.015 µM. For the same molecule, in assay [2], the DC50 was less than 0.05 µM and the Dmax lay in the range of 50 to 80%.
`COc1cc2nc(C)nc(N[C@H](C)c3cc(-c4c(Cl)cccc4CN(C)C)cs3)c2cc1[C@H]1CC[C@H](C(=O)N2CCC(CCCCN3CCN(C(=O)c4ccc(Cl)c(N5CCC(=O)NC5=O)c4)CC3)CC2)CC1` [Example 56, 1-(2-chloro-5-(4-(4-(1-((1R,4R)-4-(4-(((R)-1-(4-(2-chloro-6-((dimethylamino)methyl)phenyl)thien-2-yl)ethyl)amino)-7-methoxy-2-methylquinazolin-6-yl)cyclohexane-1-carbonyl)piperidin-4-yl)butyl)piperazine-1-carbonyl)phenyl)dihydropyrimidine-2,4(1H,3H)-dione] had a 50% inhibitory concentration (IC50) in assay [1] of no more than 0.015 µM. For the same molecule, in assay [2], the DC50 is less than 0.05 µM and the Dmax is 80 to 100%.
